In patent US20250154152A1, “INHIBITORS OF NAEGLERIA FOWLERI” (Wisconsin Alumni Research Foundation, priority 2023, published 2025):

The compounds below were run on N. fowleri strain Nf69 (ATCC 30215) trophozoites (assay: Determination of EC50 values against Naegleria fowleri (growth inhibition, CellTiter Glo, 48 h)). Details: ATCC30215, 48 h, read-out: EC50 uM against N. fowleri.
Assay type: cell-based
Outline: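 Axenic Nf69 trophozoites in Nelson's complete medium with 10% FBS exposed to compound, initially 20–0.375 μM, for 48 h at 37 °C, 5% CO2. Viability read by CellTiter-Glo luminescence; % growth inhibition versus controls, triplicate averages fitted for EC50, with lower ranges used for very potent compounds.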

| Compound | EC50 [µM] |
| --- | --- |
| CC(C)OCCN1CCC[C@@H]2c3nc4cc(Cl)c(Cl)cc4c(=O)n3CC[C@H]21 (racemic) [trans-7z, (±)-(4aR,13bS)-10,11-dichloro-4-(2-isopropoxyethyl)-1,2,3,4,4a,5,6,13b-octahydro-8H-[1,6]naphthyridino[5,6-b]quinazolin-8-one] | 0.0001 to 0.1 |

Same assay, conditions: ATCC30215, N. fowleri Nf69 trophozoites, 48 h culture, 37° C., CellTiter Glo luminescence, read-out: EC50 uM against N. fowleri

| Compound | EC50 [µM] |
| --- | --- |
| COc1cc2nc3n(c(=O)c2cc1Cl)CC[C@@H]1[C@@H]3CCCN1CCN1CCOCC1 (racemic) [trans-7mm, (±)-(4aR,13bS)-10-chloro-11-methoxy-4-(2-morpholinoethyl)-1,2,3,4,4a,5,6,13b-octahydro-8H-[1,6]naphthyridino[5,6-b]quinazolin-8-one] | 0.1 to 1 |
| COc1cc(CN2CCC[C@@H]3c4nc5cc(Cl)c(Cl)cc5c(=O)n4CC[C@H]32)cc(OC)c1 (racemic) [trans-7n, (±)-(4aR,13bS)-10,11-dichloro-4-(3,5-dimethoxybenzyl)-1,2,3,4,4a,5,6,13b-octahydro-8H-[1,6]naphthyridino[5,6-b]quinazolin-8-one] | 0.0001 to 0.1 |
| COc1cc2nc3n(c(=O)c2cc1Cl)CC[C@@H]1[C@@H]3CCCN1CCN1CCCC1 (racemic) [trans-7nn, (±)-(4aR,13bS)-10-chloro-11-methoxy-4-(2-(pyrrolidin-1-yl)ethyl)-1,2,3,4,4a,5,6,13b-octahydro-8H-[1,6]naphthyridino[5,6-b]quinazolin-8-one] | 0.1 to 1 |
| O=c1c2cc(Cl)c(Cl)cc2nc2n1CC[C@@H]1[C@@H]2CCCN1Cc1ccccn1 (racemic) [trans-7o, (±)-(4aR,13bS)-10,11-dichloro-4-(pyridin-2-ylmethyl)-1,2,3,4,4a,5,6,13b-octahydro-8H-[1,6]naphthyridino[5,6-b]quinazolin-8-one] | 1 to 10 |
| CN(C)CCN1CCC[C@@H]2c3nc4cc(Cl)c(Cl)cc4c(=O)n3CC[C@H]21 (racemic) [trans-7oo, (±)-(4aR,13bS)-10,11-dichloro-4-(2-(dimethylamino)ethyl)-1,2,3,4,4a,5,6,13b-octahydro-8H-[1,6]naphthyridino[5,6-b]quinazolin-8-one] | 0.1 to 1 |
| Cc1cccc(CN2CCC[C@@H]3c4nc5cc(Cl)c(Cl)cc5c(=O)n4CC[C@H]32)n1 (racemic) [trans-7p, (±)-(4aR,13bS)-10,11-dichloro-4-((6-methylpyridin-2-yl)methyl)-1,2,3,4,4a,5,6,13b-octahydro-8H-[1,6]naphthyridino[5,6-b]quinazolin-8-one] | 0.1 to 1 |
| O=c1c2cc(Cl)c(Cl)cc2nc2n1CC[C@@H]1[C@@H]2CCCN1CC1CC1 (racemic) [trans-7q, (±)-(4aR,13bS)-10,11-dichloro-4-(cyclopropylmethyl)-1,2,3,4,4a,5,6,13b-octahydro-8H-[1,6]naphthyridino[5,6-b]quinazolin-8-one] | 0.0001 to 0.1 |
| N#Cc1ccc(CN2CCC[C@@H]3c4nc5cc(Cl)c(Cl)cc5c(=O)n4CC[C@H]32)cc1 (racemic) [trans-7r, (±)-(4-(((4aR,13bS)-10,11-dichloro-8-oxo-2,3,5,6,8,13b-hexahydro-1H-[1,6]naphthyridino[5,6-b]quinazolin-4(4aH)-yl)methyl)benzonitrile] | > 10 |
| CC(C)(C)c1ccc(CN2CCC[C@@H]3c4nc5cc(Cl)c(Cl)cc5c(=O)n4CC[C@H]32)cc1 (racemic) [trans-7s, (±)-(4aR,13bS)-4-(4-(tert-butyl)benzyl)-10,11-dichloro-1,2,3,4,4a,5,6,13b-octahydro-8H-[1,6]naphthyridino[5,6-b]quinazolin-8-one] | > 10 |
| O=c1c2cc(Cl)c(Cl)cc2nc2n1CC[C@@H]1[C@@H]2CCCN1Cc1ccccc1 (racemic) [trans-7w, (±)-(4aR,13bS)-4-benzyl-10,11-dichloro-1,2,3,4,4a,5,6,13b-octahydro-8H-[1,6]naphthyridino[5,6-b]quinazolin-8-one] | 0.1 to 1 |
| O=c1c2cc(Cl)c(Cl)cc2nc2n1CC[C@@H]1[C@@H]2CCCN1Cc1cnccn1 (racemic) [trans-7x, (±)-(4aR,13bS)-10,11-dichloro-4-(pyrazin-2-ylmethyl)-1,2,3,4,4a,5,6,13b-octahydro-8H-[1,6]naphthyridino[5,6-b]quinazolin-8-one] | 0.0001 to 0.1 |
| O=c1c2cc(Cl)c(Cl)cc2nc2n1CC[C@@H]1[C@@H]2CCCN1CCN1CCOCC1 (racemic) [trans-7y, (±)-(4aR,13bS)-10,11-dichloro-4-(2-morpholinoethyl)-1,2,3,4,4a,5,6,13b-octahydro-8H-[1,6]naphthyridino[5,6-b]quinazolin-8-one] | 0.0001 to 0.1 |
| Cc1ccc(-c2ccc3nc4n(c(=O)c3c2)CC[C@@H]2[C@@H]4CCCN2C)cn1 (racemic) [trans-9a, (±)-(4aR,13bS)-4-methyl-10-(6-methylpyridin-3-yl)-1,2,3,4,4a,5,6,13b-octahydro-8H-[1,6]naphthyridino[5,6-b]quinazolin-8-one] | > 10 |
| CN1CCC[C@@H]2c3nc4cc(-c5ccccc5)c(Cl)cc4c(=O)n3CC[C@H]21 (racemic) [trans-9b, (±)-(4aR,13bS)-10-chloro-4-methyl-11-phenyl-1,2,3,4,4a,5,6,13b-octahydro-8H-[1,6]naphthyridino[5,6-b]quinazolin-8-one] | 1 to 10 |
| COc1ccc2c(=O)n3c(nc2c1)[C@H]1CCCN(C)[C@@H]1CC3 (racemic) [trans-50, (±)-(4aR,13bS)-11-methoxy-4-methyl-1,2,3,4,4a,5,6,13b-octahydro-8H-[1,6]naphthyridino[5,6-b]quinazolin-8-one] | 1 to 10 |
| COc1cc2nc3n(c(=O)c2cc1Cl)CC[C@@H]1[C@@H]3CCCN1CC(C)C (single isomer, unassigned) [trans-10g-ent-1] | 0.1 to 1 |
| COc1cc2nc3n(c(=O)c2cc1Cl)CC[C@H]1[C@H]3CCCN1CC(C)C (single isomer, unassigned) [trans-10h-ent-2] | 0.0001 to 0.1 |

| Compound | EC50 [µM] |
| --- | --- |
| COc1cc2nc3n(c(=O)c2cc1Cl)CC[C@@H]1[C@@H]3CCCN1CC1COC1 (single isomer, unassigned) [trans-10i-ent-1] | 0.1 to 1 |
| COc1cc2nc3n(c(=O)c2cc1Cl)CC[C@H]1[C@H]3CCCN1CC1COC1 (single isomer, unassigned) [trans-10j-ent-2] | 0.0001 to 0.1 |
| Cn1c(C2CN(CC3COC3)C2)nc2cc(Cl)c(Cl)cc2c1=O [Compound 14i, 6,7-dichloro-3-methyl-2-(1-(oxetan-3-ylmethyl)azetidin-3-yl)quinazolin-4(3H)-one] | > 10 |
| CC(C)OCCN1CCC[C@@H](c2nc3cc(Cl)c(Cl)cc3c(=O)n2C)C1 [Compound R-14aa, (R)-6,7-dichloro-2-(1-(2-isopropoxyethyl)piperidin-3-yl)-3-methylquinazolin-4(3H)-one] | 1 to 10 |
| CC(C)N1CCC[C@@H](c2nc3cc(Cl)c(Cl)cc3c(=O)n2C)C1 [Compound R-14b, (R)-6,7-dichloro-2-(1-isopropylpiperidin-3-yl)-3-methylquinazolin-4(3H)-one] | > 10 |
| Cn1c([C@@H]2CCCN(CCN3CCOCC3)C2)nc2cc(Cl)c(Cl)cc2c1=O [Compound R-14bb, (R)-6,7-dichloro-3-methyl-2-(1-(2-morpholinoethyl)piperidin-3-yl)quinazolin-4(3H)-one] | 1 to 10 |
| Cn1c([C@@H]2CCCN(CC3CCOCC3)C2)nc2cc(Cl)c(Cl)cc2c1=O [Compound R-14d, (R)-6,7-dichloro-3-methyl-2-(1-((tetrahydro-2H-pyran-4-yl)methyl)piperidin-3-yl)quinazolin-4(3H)-one] | > 10 |
| Cn1c([C@@H]2CCCN(CCN3CCCC3)C2)nc2cc(Cl)c(Cl)cc2c1=O [Compound R-14dd, (R)-6,7-dichloro-3-methyl-2-(1-(2-(pyrrolidin-1-yl)ethyl)piperidin-3-yl)quinazolin-4(3H)-one] | 0.1 to 1 |
| Cn1c([C@@H]2CCCN(CC3COC3)C2)nc2cc(Cl)c(Cl)cc2c1=O [Compound R-14f, (R)-6,7-dichloro-3-methyl-2-(1-(oxetan-3-ylmethyl)piperidin-3-yl)quinazolin-4(3H)-one] | 0.1 to 1 |
| CC(C)CN1CCC[C@@H](c2nc3cc(Cl)c(Cl)cc3c(=O)n2C)C1 [Compound R-14g, (R)-6,7-dichloro-2-(1-isobutylpiperidin-3-yl)-3-methylquinazolin-4(3H)-one] | > 10 |
| Cn1c([C@@H]2CCCN(CC(C)(C)O)C2)nc2cc(Cl)c(Cl)cc2c1=O [Compound R-14h, (R)-6,7-dichloro-2-(1-(2-hydroxy-2-methylpropyl)piperidin-3-yl)-3-methylquinazolin-4(3H)-one] | > 10 |
| Cn1c([C@@H]2CCN(CC3COC3)C2)nc2cc(Cl)c(Cl)cc2c1=O [Compound R-14j, (R)-6,7-dichloro-3-methyl-2-(1-(oxetan-3-ylmethyl)pyrrolidin-3-yl)quinazolin-4(3H)-one] | 1 to 10 |
| COCCn1c([C@@H]2CCCN(CC3COC3)C2)nc2cc(Cl)c(Cl)cc2c1=O [Compound R-14k, (R)-6,7-dichloro-3-(2-methoxyethyl)-2-(1-(oxetan-3-ylmethyl)piperidin-3-yl)quinazolin-4(3H)-one] | > 10 |
| CN(C)CCn1c([C@@H]2CCCN(CC3COC3)C2)nc2cc(Cl)c(Cl)cc2c1=O [Compound R-14l, (R)-6,7-dichloro-3-(2-(dimethylamino)ethyl)-2-(1-(oxetan-3-ylmethyl)piperidin-3-yl)quinazolin-4(3H)-one] | > 10 |
| O=c1c2cc(Cl)c(Cl)cc2nc([C@@H]2CCCN(CC3COC3)C2)n1CCN1CCOCC1 [Compound R-14m, (R)-6,7-dichloro-3-(2-morpholinoethyl)-2-(1-(oxetan-3-ylmethyl)piperidin-3-yl)quinazolin-4(3H)-one] | > 10 |
| Cn1c([C@@H]2CCCN(CC3COC3)C2)nc2cnc(Cl)cc2c1=O [Compound R-14n, (R)-6-chloro-3-methyl-2-(1-(oxetan-3-ylmethyl)piperidin-3-yl)pyrido[3,4-d]pyrimidin-4(3H)-one] | > 10 |
